Results: patent US20230022157A1 (Achillion Pharmaceuticals, Inc., priority 2018, published 2023)

target: T1, Human Factor D (Homo sapiens, UniProt P00746); experiment: Human Factor D Assay; assay type: biochemical; details: Human Factor D 80 nM, substrate Z-L-Lys-SBzl, assay of Example 3; read-out: IC50 (Stars)
T1 construct: purified from human serum; purchased Complement Technology, Inc; host or cells: human serum (natural protein, not recombinant)
Summary of the method: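 Serum-purified human factor D (80 nM final) preincubated 5 min at room temperature with test compound in 50 mM Tris, 1M NaCl, pH 7.5. Z-L-Lys-SBzl substrate and DTNB then added, each at 100 μM final. IC50 from nonlinear regression of reaction rate against compound concentration.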

T1 sequence (P00746 26-253): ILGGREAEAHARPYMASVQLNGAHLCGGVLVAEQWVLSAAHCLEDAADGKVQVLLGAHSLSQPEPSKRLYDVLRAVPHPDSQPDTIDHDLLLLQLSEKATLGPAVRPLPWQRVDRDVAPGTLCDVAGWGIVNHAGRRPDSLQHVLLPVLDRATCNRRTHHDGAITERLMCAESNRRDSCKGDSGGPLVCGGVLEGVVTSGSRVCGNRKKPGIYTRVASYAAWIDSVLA

Structure (SMILES)	IC50 [nM]
CC(=O)c1nn(CC(=O)N2[C@H](C(=O)Nc3nc(Br)ccc3C)C[C@@]3(CO)C[C@@H]23)c2c(C)cc(-c3cnc(CO)nc3)cc12 [Compound 31]	< 1000
CC(=O)c1nn(CC(=O)N2C[C@H](F)C[C@H]2C(=O)Nc2cccc(Br)n2)c2ccc(-c3ccc(C)c(F)c3)cc12 [Compound 34, (2S,4R)-1-(2-(3-Acetyl-5-(3-fluoro-4-methylphenyl)-1H-indazol-1-yl)acetyl)-N-(6-bromopyridin-2-yl)-4-fluoropyrrolidine-2-carboxamide]	< 1000

same assay, conditions: Human Factor D 80 nM, substrate Z-L-Lys-SBzl; Table 2; read-out: IC50 (Stars)

IC50 [nM]	Structure (SMILES)
< 1000	CC(=O)c1nn(CC(=O)N2[C@H](C(=O)NCCC3CC3)C[C@@]3(C)C[C@@H]23)c2c(C)cc(-c3cnc(C)nc3)cc12 [Compound 105, (1R,3S,5R)-2-{2-[3-acetyl-7-methyl-5-(2-methylpyrimidin-5-yl)indazol-1-yl]acetyl}-N-(2-cyclopropylethyl)-5-methyl-2-azabicyclo[3.1.0]hexane-3-carboxamide]
< 1000	CC(=O)c1nn(CC(=O)N2[C@H](C(=O)Nc3nc(Br)ccc3C)C[C@@]3(C)C[C@@H]23)c2c(C)cc(-c3cnc(F)nc3)cc12 [Compound 59, (1R,3S,5R)-2-(2-(3-acetyl-5-(2-fluoropyrimidin-5-yl)-7-methyl-1H-indazol-1-yl)acetyl)-N-(6-bromo-3-methylpyridin-2-yl)-5-methyl-2-azabicyclo[3.1.0]hexane-3-carboxamide]
< 1000	CC(=O)c1cn(CC(=O)N2[C@H](C(=O)Nc3nc(Br)ccc3C)C[C@@]3(C)C[C@@H]23)c2c(C)cc(-c3cnc(CO)nc3)cc12 [Compound 62, (1R,3S,5R)-2-(2-(3-acetyl-5-(2-(hydroxymethyl)pyrimidin-5-yl)-7-methyl-11H-indol-1-yl)acetyl)-N-(6-bromo-3-methylpyridin-2-yl)-5-methyl-2-azabicyclo[3.1.0]hexane-3-carboxamide]
< 1000	Cc1ncc(-c2cc3c(C(N)=O)nn(CC(=O)N4[C@H](C(=O)Nc5cncc(Br)n5)C[C@@]5(C)C[C@@H]45)c3c(C)n2)cn1 [Compound 92, 1-{2-[3-(6-Bromo-pyrazin-2-ylcarbamoyl)-5-methyl-2-aza-bicyclo[3.1.0]hex-2-yl]-2-oxo-ethyl}-7-methyl-5-(2-methyl-pyrimidin-5-yl)-1H-pyrazolo[3,4-c]pyridine-3-carboxylic acid amide]
< 1000	CC(=O)c1nn(CC(=O)N2[C@H](C(=O)Nc3nc(Br)ccc3C)C[C@@]3(C)C[C@@H]23)c2ccc(-c3cnc(C(C)O)nc3)cc12 (stereo partly drawn) [Compound 126, (1R,3S,5R)-2-(2-(3-acetyl-5-(2-(1-hydroxyethyl)pyrimidin-5-yl)-1H-indazol-1-yl)acetyl)-N-(6-bromo-3-methylpyridin-2-yl)-5-methyl-2-azabicyclo[3.1.0]hexane-3-carboxamide]
< 1000	CC(=O)c1nn(CC(=O)N2[C@H](C(=O)Nc3nc(Br)ccc3C)C[C@@]3(C)C[C@@H]23)c2c(C)cc(-c3cnc(C(C)(C)O)nc3)cc12 [Compound 41, (1R,3S,5R)-2-(2-(3-acetyl-5-(2-(2-hydroxypropan-2-yl)pyrimidin-5-yl)-7-methyl-1H-indazol-1-yl)acetyl)-N-(6-bromo-3-methylpyridin-2-yl)-5-methyl-2-azabicyclo[3.1.0]hexane-3-carboxamide]
< 1000	COCC(Cc1ccccc1)NC(=O)[C@@H]1C[C@@]2(C)C[C@H]2N1C(=O)Cn1nc(C(C)=O)c2cc(-c3cnc(C)nc3)cc(C)c21 (stereo partly drawn) [Compound 172, (1R,3S,5R)-2-{2-[3-acetyl-7-methyl-5-(2-methylpyrimidin-5-yl)indazol-1-yl]acetyl}-N-(1-methoxy-3-phenylpropan-2-yl)-5-methyl-2-azabicyclo[3.1.0]hexane-3-carboxamide]

Further lines, the compound ahead of its results:

Structure (SMILES)	IC50 [nM]
CC(=O)c1nn(CC(=O)N2[C@H](C(=O)NCCC3CCC3)C[C@@]3(C)C[C@@H]23)c2c(C)cc(-c3cnc(C)nc3)cc12 [Compound 104, (1R,3S,5R)-2-{2-[3-acetyl-7-methyl-5-(2-methylpyrimidin-5-yl)indazol-1-yl]acetyl}-N-(2-cyclobutylethyl)-5-methyl-2-azabicyclo[3.1.0]hexane-3-carboxamide]	< 1000
CC(=O)c1nn(CC(=O)N2[C@H](C(=O)Nc3cnc(C)c(Br)n3)C[C@@]3(C)C[C@@H]23)c2c(C)cc(-c3cnc(CO)nc3)cc12 [Compound 94, (1R,3S,5R)-2-(2-(3-acetyl-5-(2-(hydroxymethyl)pyrimidin-5-yl)-7-methyl-1H-indazol-1-yl)acetyl)-N-(6-bromo-5-methylpyrazin-2-yl)-5-methyl-2-azabicyclo[3.1.0]hexane-3-carboxamide]	< 1000
CC(=O)c1nn(CC(=O)N2[C@H](C(=O)Nc3nc(Br)ccc3C)C[C@@]3(C)C[C@@H]23)c2c(C)cc(-c3cncc(S(C)(=O)=O)c3)cc12 [Compound 129, (1R,3S,5R)-2-(2-(3-Acetyl-7-methyl-5-(5-(methylsulfonyl)pyridin-3-yl)-1H-indazol-1-yl)acetyl)-N-(6-bromo-3-methylpyridin-2-yl)-5-methyl-2-azabicyclo[3.1.0]hexane-3-carboxamide]	< 1000
COc1cc(Br)nc(NC(=O)[C@@H]2[C@@H]3C[C@@H]3CN2C(=O)Cn2nc(C(C)=O)c3cc(-c4cnc(CO)nc4)cc(C)c32)c1 [Compound 73, (1R,2S,5S)-3-(2-(3-acetyl-5-(2-(hydroxymethyl)pyrimidin-5-yl)-7-methyl-11H-indazol-1-yl)acetyl)-N-(6-bromo-4-methoxypyridin-2-yl)-3-azabicyclo[3.1.0]hexane-2-carboxamide]	< 1000
CC(=O)c1nn(CC(=O)N2[C@H](C(=O)Nc3nc(Br)c(F)cc3C)C[C@@]3(C)C[C@@H]23)c2c(C)cc(-c3cnc(C(=O)O)nc3)cc12 [Compound 45, 5-(3-acetyl-1-(2-((1R,3S,5R)-3-((6-bromo-5-fluoro-3-methylpyridin-2-yl)carbamoyl)-5-methyl-2-azabicyclo[3.1.0]hexan-2-yl)-2-oxoethyl)-7-methyl-1H-indazol-5-yl)pyrimidine-2-carboxylic acid]	< 1000
CC(=O)c1cn(CC(=O)N2C[C@H]3C[C@H]3[C@H]2C(=O)Nc2nc(Br)c(F)cc2C)c2c(C3CC3)cc(-c3cnc(C)nc3)cc12 [Compound 163]	< 1000
CC(=O)c1nn(CC(=O)N2[C@H](C(=O)Nc3nc(OC(F)(F)F)ccc3C)C[C@@]3(C)C[C@@H]23)c2c(C)cc(-c3cnc(CO)nc3)cc12 [Compound 55, (1R,3S,5R)-2-(2-(3-acetyl-5-(2-(hydroxymethyl)pyrimidin-5-yl)-7-methyl-1H-indazol-1-yl)acetyl)-5-methyl-N-(3-methyl-6-(trifluoromethoxy)pyridin-2-yl)-2-azabicyclo[3.1.0]hexane-3-carboxamide]	< 1000
CC(=O)c1nn(CC(=O)N2[C@H](C(=O)N[C@@H]3CCCC[C@@H]3C)C[C@@]3(C)C[C@@H]23)c2c(C)cc(-c3cnc(C)nc3)cc12 [Compound 190, (1R,3S,5R)-2-{2-[3-acetyl-7-methyl-5-(2-methylpyrimidin-5-yl)indazol-1-yl]acetyl}-5-methyl-N-[(1R,2S)-2-methylcyclohexyl]-2-azabicyclo[3.1.0]hexane-3-carboxamide]	< 1000
